Among the data in ChEMBL document CHEMBL1130570, “Cyclic saligenyl phosphotriesters of 2,3-dideoxy-2,3-didehydrothymidine (d4T) a new pro-nucleotide approach” (Bioorg Med Chem Lett, 1997) are PC and EC50 values, retold here.

Values after ≈ are worked out from the molar mass of the structure shown.

Data set [1] is described as follows: Partition coefficient in 1-octanol / phosphate buffer at pH 6.8. The format is physicochemical. The following applies: octanol/water.
Data set [2] has as its system CCRF-CEM. Description: Effective concentration that causes 50 % inhibition of HIV-2 in CEM/TK- cells, was determined. In kind it is functional, cell-based. The following applies: Homo sapiens.
Data set [3] deals with CCRF-CEM. The experiment in a line: Effective concentration that causes 50 % inhibition of HIV-1 in CEM/0 cells, was determined. The format is functional, cell-based. The conditions noted are these: Homo sapiens.
Data set [4] has as its system CCRF-CEM. The experiment in a line: Effective concentration that causes 50 % inhibition of HIV-2 in CEM/0 cells, was determined. The conditions noted are these: Homo sapiens. The format is functional, cell-based.

What is called EC50 is the concentration at which the effect is half-maximal. A low value points to an effect from little substance. Take `Cc1cn([C@H]2C=C[C@@H](COP3(=O)OCc4cc(Cl)ccc4O3)O2)c(=O)[nH]c1=O` (some centres undefined): the PC in data set [1] is recorded as 7.7. The EC50 was found to be 20 µg/mL (≈ 46.9 µM) in the data set on CCRF-CEM [2], 0.18 µg/mL (≈ 0.422 µM) in the data set with CCRF-CEM [3] and 0.25 µg/mL (≈ 0.586 µM) in the data set with CCRF-CEM [4].

`Cc1cn([C@H]2C=C[C@@H](COP3(=O)OCc4ccccc4O3)O2)c(=O)[nH]c1=O` (some centres undefined) registered a PC in data set [1] of 1.9.

In turn, `Cc1cn([C@H]2C=C[C@@H](CO)O2)c(=O)[nH]c1=O` [STAVUDINE] registered a PC in data set [1] of 0.15. Besides, the EC50 turned out to be 45 µg/mL (≈ 201 µM) with CCRF-CEM [2], 0.4 µg/mL (≈ 1.78 µM) in the data set on CCRF-CEM [3] and 1.45 µg/mL (≈ 6.47 µM) in the data set on CCRF-CEM [4].

Consider `Cc1cn([C@H]2C=C[C@@H](COP3(=O)OCc4cc([N+](=O)[O-])ccc4O3)O2)c(=O)[nH]c1=O` (some centres undefined), for which the PC in data set [1] came to 1.5. For the same molecule, the EC50 with CCRF-CEM [2] is 40 µg/mL (≈ 91.5 µM); with CCRF-CEM [3], 0.29 µg/mL (≈ 0.663 µM); in the data set with CCRF-CEM [4], 0.4 µg/mL (≈ 0.915 µM).

Regarding `Cc1ccc2c(c1)COP(=O)(OC[C@@H]1C=C[C@H](n3cc(C)c(=O)[nH]c3=O)O1)O2` (some centres undefined), the PC in data set [1] is given as 5.4.
